# From patent US20030170223A1, “Pulmonary vasodilator surfactant compositions and method of use” (Board of Trustees of Michigan State University, priority 2002, published 2003)
# B1: recombinant human IκB-α: recombinant human IκB-α which can maintain the inhibitory effect on NF-κB (protein, UniProt P25963 1-317, looked up)
# NF-kappa-B inhibitor alpha: MFQAAERPQEWAMEGPRDGLKKERLLDDRHDSGLDSMKDEEYEQMVKELQEIRLEPQEVPRGSEPWKQQLTEDGDSFLHLAIIHEEKALTMEVIRQVKGDLAFLNFQNNLQQTPLHLAVITNQPEIAEALLGAGCDPELRDFRGNTPLHLACEQGCLASVGVLTQSCTTPHLHSILKATNYNGHTCLHLASIHGYLGIVELLVSLGADVNAQEPCNGRTALHLAVDLQNPDLVSLLLKCGADVNRVTYQGYSPYQLTWGRPSTRIQQQLGQLTLENLQMLPESEDEESYDTESEFTEFTEDELPYDDCVFGGQRLTL
# How the values were obtained:
# [1] = aqueous solutions; cited from earlier work
# [2] = tested on: PA smooth muscle cell contraction in the lungs from new born rats (U46619 vasoconstriction); assay: Non-specific inhibition test: U46619 vasoconstriction response in isolated perfused lungs; parameters: species or system Sprague-Dawley rats; conditions: U46619 5 ng/mL
# Experimental: (§1) Isolated perfused lung preparation prepared from newborn rats. Male or female newborn (less than 48 hours old) Sprague-Dawley rats are anesthetized with pentobarbital sodium (0.65 mg/kg; ip), and heparin (1000 U/kg) is administered intravenously. Lungs are isolated as follows. Briefly, the lungs and the heart are remove en block and the pulmonary artery (PA) and left atrium are cannulated and perfused with a buffered salt solution (BSS) (NaCl (117 mM), KCl (4 mM), NaHCO3 (18 mM), MgSO4 (0.76 mM), NaHPO4′H2O (1 mM), CaCl2 (1.21 mM), and glucose (1 g/L)) containing bovine serum albumin (0.5% w/v) and indomethacin (10 mg/L). After flushing the pulmonary circulation with perfusate (100-200 mL), the lungs are perfused from a recirculating system (35 mL) at 8 mL/min. Perfusate is maintained at […], pH 7.4, and bubbled with 5% O2, 5% CO2, and 90% N2. Left atrial pressure is maintained at 1 cm H2O2 by elevating the venous outflow cannula. The lungs are ventilated with a small animal respirator using a humidified gas mixture of 21% O2, 5% CO2, and 74% N2 (normoxia) at a rate of 54 breaths/in, a tidal volume of 2-3 mL and an end-expiratory pressure of 3 cm H2O2. Left atrial and PA pressures are continuously recorded on a multichannel strip chart recorder (Grass Instruments, Quincy, Mass.).
# Hypoxia-induced changes in pulmonary vascular impedance are represented as the change in PA pressure observed during hypoxic ventilation under constant flow conditions, compared with normoxia, in cm H2O. Two hypoxic challenges are performed and averaged to define the baseline response prior to the experimental intervention, thus allowing each lung to act as its own control. The experimental agents then are added to the reservoir and allowed to recirculate for 5-10 minutes, after which two more hypoxic challenges are administered and averaged to evaluate the effects of the intervention. In the continued presence of the experimental agents, the stable thromboxane A2 analog, U46619 (5 ng/mL) is then added to the reservoir to determine the effect on the ability to respond to a receptor-mediated vasoconstricting agonist. This provided a measure of the specificity of the intervention for the response to hypoxia.
# Non-specific inhibition of PA smooth muscle cell contraction in the lungs from new born rats. To determine whether the pharmacological agents that inhibited the HPV response in our study might also affect the response a receptor-mediated vasoconstrictor, studies are carried out using the stable Thromboxane A2 analog, U46619 (5 ng/mL). Experiments are performed to assess the U46619 response before and after the addition of the experimental agents. Briefly, lungs are subjected to a challenge of U46619 and the change in PA pressure is measured. The vasculature is then washed out with fresh perfusate until the PA pressure returned to baseline (approximately 10 minutes elapsed time), after which the experimental agents are administered to the reservoir. After 10 minutes, a second dose of U46619 is added to the reservoir and the change in PA pressure is measured. Only Rotenone blunted the U46619 vasoconstriction at 5 μg/mL. Myxothiazol (50 μg/mL), cyanide (10 μM), ebselen (50 μM), and DDC (1 μM) had no effect on the U46619 vasoconstriction response. DPI (10 μM), rotenone (50 ng/mL), antimycin A (1 ng/mL), PDTC (10 μM), and DIDS (200 μM) augmented the U46619 vasoconstriction response.
# PA myocytes [3] = conditions: 10 μM
# Experimental: To confirm that the loss of DCF fluorescence upon reoxygenation is not due to cell death subsequent to the opening of the mitochondrial permeability transition pore, additional studies are carried out using tetraethyrhodamine methyl ester (TMRE) to assess mitochondrial membrane potential (ΔΨm). This cationic dye equilibrates across the mitochondrial inner membrane in accordance with the AΔΨm, and changes in endothelia fluorescence at these non-quenching concentrations can be used to detect changes in mitochondrial polarization. PA myocytes on collagen-coated cover slips are loaded with TMRE (100 nM) for 45 minutes at 37° C. The cells are then placed in a flow-through chamber on an inverted microscope and perfused with M199 media without serum containing TMRE (10 nM). Fluorescence images are obtained under baseline normoxic conditions (16% O2/5% CO2) until a stable baseline is established. The PO2 of the media is then lowered for 30 mm (1% O2/5% CO2), after which it is restored to normoxia for 30 minutes.
# PA endothelia myocytes = assay: DCFH oxidation (ROS probe) sensitivity check; type: cell-based, rat
# Experimental: Pulmonary microvessel endothelia isolation and measurement of reactive oxygen species (ROS). ROS generation in pulmonary endothelia and myocytes is assessed using the probe 2′,7′-dichlorofluorescin diacetate (DCFH-DA, 5 μM Molecular Probes), which is continuously present in the perfusate. The diacetate form enters the cells where esterases cleave the acetate group, tending to trap the nonfluorescent 2′,7′-dichlorofluorescin (DCFH) intracellularly. In the presence of H2O2, this probe is oxidized to 2′,7′-dichlorofluorescein (DCF), which is quantified using fluorescence imaging (excitation: 488 nm, emission: 535 nm) in a system equipped with a 12 bit digital camera. Intensity values are reported as percent of initial values, after subtracting background (METAMORPHIC, Universal Imaging, Inc.).
# To confirm that the DCFH dye is sensitive to oxidation by H2O2, additional studies are carried out in PA endothelia myocytes superfused with normoxic (16% O2) media in the presence of DCFH-DA (5 μM). […] When the H2O2-containing media is replaced with fresh media containing DCFH without H2O2, intracellular fluorescence decreased toward baseline values. These findings confirm that DCFH oxidation is sensitive to H2O2, and that oxidized DCF can leak out of viable cells and explain the decrease in fluorescence seen at reoxygenation.
# [4] = tested on: degradation of IκB-β / NF-κB; conditions: in vivo and experimental lung transplant preservation media; cited from earlier work
# PA myocytes [5] = assay: SYTOX Green membrane permeability check; type: cell-based, rat; conditions: 300 μM, plasma membrane disruption
# Experimental: Pulmonary microvessel myocyte isolation from the isolated lungs from the newborn rats. Myocytes are isolated using a modification of the method of Marshall et al. (______ (1999). Freshly excised rat heart and lungs are rinsed with phosphate-buffered saline (PBS) containing penicillin and streptomycin (1%). The right ventricle is cannulated and the pulmonary vasculature is flushed with the PBS (30 mL). Using the PA cannula, M199 growth media (30 mL) containing HEPES (25 mM), and penicillin and streptomycin (1%) plus low melting point agarose (0.5%) and iron particles (0.5%), is flushed through the pulmonary vasculature. Because the iron particles are too large to pass through the capillaries, only the arteries contained iron particles. The airways are filled via the trachea with M199 (15 mL) containing low melting point agarose (1%) without iron. The lungs are plunged into cold PBS to cause the agarose to gel. After 10 minutes, the lobes are dissected free and finely minced in a petri dish. […]
# In steady state, increases in fluorescence occur when the rate of intracellular oxidation of the dye is accelerated. […] To confirm that the decrease in DCF fluorescence seen upon reoxygenation is not due to a loss of plasma membrane integrity, additional studies are carried out using SYTOX Green dye (100 nM) to detect changes in membrane permeability. […]
# [6] = tested on: isolated lungs from the newborn rats; assay: HPV responses in isolated lungs: PA pressure after agonist; parameters: species or system Sprague-Dawley rats; conditions: 10 nM in recirculating perfusate
# Experimental: as §1
# HPV responses in isolated lungs from the newborn rats. […]
molecule,measurement,setting,value
"COC1=C(OC)C(=O)C(C/C=C(\C)CC/C=C(\C)CC/C=C(\C)CC/C=C(\C)CC/C=C(\C)CC/C=C(\C)CC/C=C(\C)CC/C=C(\C)CC/C=C(\C)CCC=C(C)C)=C(C)C1=O [CoQ10, 2,3-dimethoxy-5-methyl-6-decaprenyl-1,4-benzoquinone]",solubility,[1],only lipid soluble
"CCN(CC)C(=S)S [DDC, diethyldithiocarbamate]",effect on U46619 vasoconstriction response,[2]; 1 μM,no effect
"O=S(=O)(O)c1cc(N=C=S)ccc1C=Cc1ccc(N=C=S)cc1S(=O)(=O)O [DIDS, 4,4′-diisothiocyanatostilbene-2,2′-disulphonic acid]",effect on U46619 vasoconstriction response,[2]; 200 μM,augmented
"c1ccc2c(c1)[I+]c1ccccc1-2 [DPI, diphenyleneiodonium]",effect on U46619 vasoconstriction response,[2]; 10 μM,augmented
"N#CC(C#N)=NNc1ccc(OC(F)(F)F)cc1 [FCCP, carbonyl cyanide p-trifluoromethoxyphenylhydrazone]",TMRE fluorescence (ΔΨm),PA myocytes [3],"rapid, significant decrease in fluorescence"
OO [H2O2],intracellular DCF fluorescence,PA endothelia myocytes,increased significantly and progressively
"CO/C(=C/C(N)=O)[C@H](C)[C@H](/C=C/c1csc(-c2csc([C@@H](C)/C=C/C=C/C(C)C)n2)n1)OC [Myxothiazol, myxothiazol]",effect on U46619 vasoconstriction response,[2]; 50 μg/mL,no effect
"S=C(S)N1CCCC1 [PDTC, pyrrolidine dithiocarbamate]",solubility,[1],poorly soluble
same,"pulmonary mean arterial pressure (MAP), edema, and cellular infiltration",[4],reduced
same,pulmonary oxygenation,[4],improved significantly
same,effect on U46619 vasoconstriction response,[2]; 10 μM,augmented
C[C@@H]1CC[C@@]2(OC1)O[C@H]1[C@@H](O)[C@H]3[C@@H]4CC[C@H]5C[C@@H](O[C@@H]6O[C@H](CO)[C@H](O[C@@H]7O[C@H](CO)[C@@H](O)[C@H](O[C@@H]8OC[C@@H](O)[C@H](O)[C@H]8O)[C@H]7O[C@@H]7O[C@H](CO)[C@H](O)[C@H](O[C@@H]8O[C@H](CO)[C@@H](O)[C@H](O)[C@H]8O)[C@H]7O)[C@H](O)[C@H]6O)[C@H](O)C[C@]5(C)[C@H]4CC[C@]3(C)[C@H]1[C@@H]2C [digitonin],nuclear staining with SYTOX Green,PA myocytes [5],all cells demonstrated nuclear staining
O=c1c2ccccc2[se]n1-c1ccccc1 [ebselen],effect on U46619 vasoconstriction response,[2]; 50 μM,no effect
C=C(C)[C@H]1Cc2c(ccc3c2O[C@@H]2COc4cc(OC)c(OC)cc4[C@@H]2C3=O)O1 [rotenone],effect on U46619 vasoconstriction response,[2]; 50 ng/mL,augmented
same,effect on U46619 vasoconstriction response,"[2]; 5 μg/mL, isolated perfused newborn rat lung",blunted
Angiotensin II,increase of PA pressure,[6],~2 cm H2O
antimycin A,effect on U46619 vasoconstriction response,[2]; 1 ng/mL,augmented
B1,solubility,[1],poorly soluble
